Molecules are shown by their SMILES.

From patent US12152030B2 (NOVOSTAR PHARMACEUTICALS, LTD., priority 2019, dated 2024) come the findings set out here.

Data set [1] has as its system PD-1. The data set can be described thus: Expression of immune checkpoint PD-1 on cell surface of PHA-activated PBMC (flow cytometry). In kind it is cell-based, human. Conditions: 5 μg/ml PHA, 0.01-10 μM, 48 hours. The method, then: (§1) Gradient centrifugation was used to extract PBMC cells from peripheral blood of healthy people. The PBMC cells were activated with 5 μg/ml PHA (Sigma), and treated with different concentrations of compounds (0, 0.01, 0.1, 1, 3, 10 μM). After 48 hours, the cells and culture supernatants were collected, respectively. Flow cytometry was used to detect the expression of immune checkpoints, PD-1, Tim-3 and Lag-3 on cell surface, and to detect the secretion level of various cytokines (IL-6, IL-10 and TNF-α) in the cell culture supernatants.
A general note: Flow cytometry measures light scatter and fluorescence of single cells or particles in a stream.

Data set [2] has as its system TNF-α. The data set can be described thus: Secretion level of TNF-α in PHA-activated PBMC culture supernatants. In kind it is cell-based, human. Conditions: 5 μg/ml PHA, 0.01-10 μM, 48 hours. The method, then: as §1
Data set [3] concerns Tim-3. The data set can be described thus: Expression of immune checkpoint Tim-3 on cell surface of PHA-activated PBMC (flow cytometry). Conditions: 5 μg/ml PHA, 0.01-10 μM, 48 hours. In kind it is cell-based, human. The method, then: as §1
A short description of data set [4]: Pharmacokinetic study in rats. In kind it is in vivo. Conditions: male, SD, plasma, rat. The procedure: In the examples, rat pharmacokinetic tests were performed for compounds 2 and 26 to illustrate their pharmacokinetic properties in rats.
Formulation of Liquors of Compound 2: […]
Experimental Method for Pharmacokinetic Study in Rats
(§2) Six SD rats, male, weighing 180-220 g, fasting for 12 hours, were randomly divided into 2 groups, 3 in each group. The animals in group A were intragastrically administrated with the compound liquor at a dose of 10 mg/kg; the animals in group B were intravenously administrated with the compound liquor via tails at a dose of 3 mg/kg. Blank blood was harvested before administration; about 100 μL of venous blood was harvested at different time points after administration, placed in a test tube added with heparin and centrifuged, and about 50 μL of blood plasma was collected and stored at −20° C. for testing.
Formulation of Liquors of Compound 26: […]
Formulation of solution for intravenous administration: compound 26 was dissolved in a solution of 5% DMSO+10% Solutol HS15+85% (20% HP-(3-CD physiological saline).
Formulation of suspension for intragastric administration: compound 26 was dissolved in a solution of 5% DMSO+10% Solutol HS15+85% (20% HP-(3-CD physiological saline).
Administration dosage of compound 26: 1 mg/kg for intravenous injection, 3 mg/kg for intragastric administration.
as §2, with “of 3” for “of 10”, “of 1” for “of 3”

In data set [5] the target is MNK2 (Homo sapiens, UniProt Q9HBH9). Briefly: MNK biological enzyme assay (HTRF kinase assay), MNK2. In kind it is biochemical. Set-up: purchased ThermoFisher PV5607. Conditions: 1 ng/μl MNK2, 1 μM STK1 peptide, 100 μM ATP. The procedure: (§3) A HTRF kinase assay kit (Cisbio, catalog number 62ST1PEB) was used to determine the MNK inhibitory activity of the compounds. All kinase reactions were performed in the reaction buffer (provided in the kit). The final MNK1 reaction involved 3 ng/ul recombinant MNK1 (ThermoFisher, PV6023), 1 μM MNK substrate peptide STK1 (provided in the kit), 100 μM ATP, and different concentrations of the inhibitory compounds of interest. The final MNK2 reaction involved 1 ng/μl recombinant MNK2 (ThermoFisher, PV5607), 1 μM MNK substrate peptide STK1 (provided in the kit), 100 μM ATP, and different concentrations of the inhibitory compounds of interest. The final DMSO concentration in each of the reactions was 1%.
(§4) The kinase reaction was performed in a final volume of 10 μl in a 384-well white flat-bottomed polystyrene plate. The MNK1/2 enzyme was pre-incubated with the compound and substrate peptide for 5 minutes, and then ATP was added thereto. After addition of ATP, the kinase reaction was incubated at 25° C. for 120 minutes or 60 minutes. The reaction was subsequently terminated by adding 5 μl of EU3+ substrate antibody detection reagent and 5 μl of XL665 detection reagent, and incubating for another 60 minutes. The luminescent signal was detected with an EnVision microplate reader counter (Perkin Elmer), and the signal from 10-point dilution series of the compounds was used to calculate the compound concentration (IC50) required to achieve 50% inhibition of enzyme activity.
(§5) In this respect, IC50 values which are less than 0.01 μM were marked as “+++”, which are from 0.01 to 0.1 μM were marked as “++”, and which are greater than 0.1 and up to 10.0 μM were marked as “+”, and NA meant “not detected”.

The test system of data set [6] is Phosphorylated eIF4E. Briefly: Intracellular peIF4E signaling assay. In kind it is cell-based. Conditions: 2 h; two hours incubation at 37° C.; read-out: peIF4E signaling cell assay IC50. The procedure:
Phosphorylated eIF4E was determined using CisBio peIF4E assay kit (CisBio, catalog number 64EF4PEG). The cells were plated in a 96-well cell culture plate in a volume of 90 μL, and the number of cells per well was 5*10^4. The compounds (10×) were subjected to 3-fold serial dilution, added to the cell plate in a volume of 10 μL with the final DMSO concentration being 1%, and incubated at 37° C. for two hours. The cell plate was centrifuged at 300 g for 5 minutes, and the cell supernatant was carefully removed. The cell plate was immediately added with 50 μL of cell lysis buffer […] and incubated at 25° C. with shaking for at least 30 minutes. After homogenization by pipetting, 16 μL of cell lysate was transferred from the 96-well cell culture plate to a 384-well small-volume microwell plate. According to the kit instruction, an antibody mixture solution was prepared with a detection buffer, and was added in a volume of 4 μL to the 384-well small-volume microwell plate containing the cell lysate. The plate was covered with a plate sealer, incubated overnight at 25° C., and was read for fluorescence emission at two different wavelengths (665 nm and 615 nm) on the EnVision microplate reader counter. The emission ratio was imported into a GraphPadPrism software to fit the compound concentration (IC50) required for 50% inhibition of enzyme activity.
In this respect, IC50 values which are less than 0.05 μM were marked as “+++”, which are from 0.05 to 1.0 μM were marked as “++”, and which are greater than 1.0 and up to 100 μM were marked as “+”, and NA meant “not detected”.

Data set [7] relates to Lag-3. Briefly: Expression of immune checkpoint Lag-3 on cell surface of PHA-activated PBMC (flow cytometry). Conditions: 5 μg/ml PHA, 0.01-10 μM, 48 hours. In kind it is cell-based, human. The procedure:
as §1

The subject of data set [8] is IL-10. Briefly: Secretion level of IL-10 in PHA-activated PBMC culture supernatants. In kind it is cell-based, human. Conditions: 5 μg/ml PHA, 0.01-10 μM, 48 hours. The method, then: as §1
Data set [9] has as its system IL-6. The data set can be described thus: Secretion level of IL-6 in PHA-activated PBMC culture supernatants. Conditions: 5 μg/ml PHA, 0.01-10 μM, 48 hours. In kind it is cell-based, human. The method, then: as §1
Data set [10] has as its target MNK1 (Homo sapiens, UniProt Q9BUB5). The data set can be described thus: MNK biological enzyme assay (HTRF kinase assay), MNK1. In kind it is biochemical. Conditions: 3 ng/ul MNK1, 1 μM STK1 peptide, 100 μM ATP. The arrangement: purchased ThermoFisher PV6023. The procedure: as §3, §4, §5
A general note: TR-FRET usually uses a lanthanide donor and a delayed reading to cut background.

Chain of MNK1 (Q9BUB5 whole entry): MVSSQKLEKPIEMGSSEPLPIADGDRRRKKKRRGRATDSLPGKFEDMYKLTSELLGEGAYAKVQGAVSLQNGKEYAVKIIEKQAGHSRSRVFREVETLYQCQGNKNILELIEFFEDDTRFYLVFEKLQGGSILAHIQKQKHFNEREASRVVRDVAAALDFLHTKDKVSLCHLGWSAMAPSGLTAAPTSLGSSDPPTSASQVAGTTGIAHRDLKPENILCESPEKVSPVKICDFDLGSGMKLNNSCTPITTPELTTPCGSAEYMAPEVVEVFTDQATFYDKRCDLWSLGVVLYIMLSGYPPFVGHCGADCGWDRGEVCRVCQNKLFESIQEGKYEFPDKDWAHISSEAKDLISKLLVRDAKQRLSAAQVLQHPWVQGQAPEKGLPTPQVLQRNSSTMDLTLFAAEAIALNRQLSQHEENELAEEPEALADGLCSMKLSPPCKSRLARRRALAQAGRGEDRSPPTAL
Chain of MNK2 (Q9HBH9 whole entry): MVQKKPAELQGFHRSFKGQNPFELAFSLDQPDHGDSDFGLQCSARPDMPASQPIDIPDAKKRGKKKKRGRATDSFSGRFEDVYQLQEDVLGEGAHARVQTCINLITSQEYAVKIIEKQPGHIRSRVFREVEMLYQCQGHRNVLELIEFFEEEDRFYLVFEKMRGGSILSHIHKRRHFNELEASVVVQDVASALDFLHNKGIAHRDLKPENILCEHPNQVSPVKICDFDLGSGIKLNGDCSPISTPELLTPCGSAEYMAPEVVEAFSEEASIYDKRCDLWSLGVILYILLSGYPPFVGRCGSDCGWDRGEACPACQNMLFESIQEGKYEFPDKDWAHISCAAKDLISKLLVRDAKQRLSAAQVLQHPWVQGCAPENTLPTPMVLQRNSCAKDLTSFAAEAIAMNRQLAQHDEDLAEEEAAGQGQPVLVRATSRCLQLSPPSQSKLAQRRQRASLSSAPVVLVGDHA

Usually AUC(0-inf) stands for the area under the concentration-time curve extrapolated to infinity. Usually AUC(0-t) stands for the area under the concentration-time curve up to a stated or last time point. A word on the clearance: it is the volume of plasma or blood freed of the substance per unit of time. A lower clearance goes with a low capacity for elimination. The half-life is how long it takes for the measured level to halve. Low values mean rapid decline, high ones slow decline. Broadly, the bioavailability is dose-corrected exposure relative to a reference, in per cent. Low values mean poor availability, high ones good availability. The term Cmax denotes the peak of the concentration-time curve. One may read the Tmax as the time at which the peak concentration occurs. One may read the IC50 as the point on the concentration scale where inhibition reaches its midpoint. As for `Cc1c2c(c(=O)n3c1C(=O)NC31CCCCC1)Nc1cc(NC(=O)C3CC3)ncc1C2` [Compound 26], the “inhibition of PD-1 expression” value in data set [1] is recorded as “significantly inhibited”. For the same compound, in data set [2], the “inhibition of secretion of TNF-α” value is given as “significantly inhibited”. For the same compound, the “inhibition of Tim-3 expression” value in [3] was “significantly inhibited”. In data set [4] (iv, 1 mg/kg), this compound had an AUC(0-inf) of 632 ng·h/mL, an AUC(0-t) of 619 ng·h/mL, a clearance of 27.2 mL/min/kg and a half-life of 3.73 h. For the same compound, the Vd in data set [4] (iv, i.v., 1 mg/kg, read-out: Vz) was found to be 4.14 L/kg. Also, the bioavailability in [4] (oral, p.o. 3 mg/kg vs i.v. 1 mg/kg) amounted to 21.7%. Also, in data set [4] (po, 3 mg/kg), the AUC(0-inf) was 391 ng·h/mL, the AUC(0-t) stood at 402 ng·h/mL, the highest level (Cmax) was 45.2 ng/mL and the Tmax came out at 1.75 h. This compound had a half-life in data set [4] (po, 3 mg/kg) of 6.97 h. The compound further returned an IC50 in [5] below 10 nM. Further, the IC50 in data set [6] is below 50 nM. Moreover, the “inhibition of Lag-3 expression” value in [7] is “significantly inhibited”. Moreover, the “inhibition of secretion of IL-10” value in [8] was “significantly inhibited”. The “inhibition of secretion of IL-6” value in data set [9] is reported as “significantly inhibited”. The IC50 in [10] was below 10 nM.
Consider `CC(=O)Nc1cc2c(cn1)Cc1c(C)c3n(c(=O)c1N2)C1(CCCCC1)NC3=O` [Compound 21, 12(N-methyl-1,5-2,5,6,11-tetrahydro-1H-spiro[cyclohexane-1-imidazo[1,5-6]pyrido[3,4-b]naphthyridine1.6][8]′-yl)acetamide], for which the “inhibition of PD-1 expression” value in data set [1] was “significantly inhibited”. The “inhibition of secretion of TNF-α” value in data set [2] was “significantly inhibited”. Further, the “inhibition of Tim-3 expression” value in data set [3] is “significantly inhibited”. The IC50 in data set [5] and in [10] was below 10 nM each time. For the same compound, in data set [7], the “inhibition of Lag-3 expression” value was “significantly inhibited”. Further, the “inhibition of secretion of IL-10” value in [8] is “significantly inhibited”. In addition, the “inhibition of secretion of IL-6” value in data set [9] was “significantly inhibited”.
`Cc1c2n(c(=O)c3[nH]c4cc(N)ncc4c(=O)c13)C(C)(c1ccccc1)NC2=O` (stereo not shown) [Compound 7, 8-amino-3,12-dimethyl-3-phenyl-2,3-dihydroimidazo[1′,5′:1,6]pyrido[3,4-B][1,6]naphthyridine-1,5,11(6H)-trione]: the IC50 in data set [5] is 10 to 100 nM; in [6], 1000 to 100000 nM; in [10], 10 to 100 nM.
For `Cc1c2n(c(=O)c3[nH]c4cc(N)ncc4c(=O)c13)C1(CCCC1)NC2=O` [Compound 5, 8-amino-12-methyl-2H-spiro[cyclopentane-1,3-imidazo[1,5:1,6]pyridine[3,4-b][1,6]naphthyridine]-1,5,11(6H)-trione], the figures for the IC50 in [5], in data set [6] and in [10] were below 10 nM, below 50 nM and below 10 nM, respectively.
